System: Streptococcus mutans
Assay: Killing efficacy against Streptococcus mutans in vitro (cfu count after treatment)
Format: cell-based
Conditions: inoculum 2.71×10^4 cfu/ml, FIG. 1
Experimental: Because the primary bacterium responsible for dental caries (cavities) is Streptococcus mutans, the killing efficacy of agmatine and EGCG, alone and in combination, was determined against Streptococcus mutans. Killing efficacy was measured in vitro using Streptococcus mutans cells grown in brain heart infusion (BHI) plates for at least 24-48 hours at 37° C. Each experiment was initiated by collecting an individual colony from the BHI plate and growning the colony overnight at 37° C. and 5% CO2 in BHI liquid media. Streptococcus mutans cells were then passaged 2 times in chemically defined media for Streptococcus mutans and grown overnight at 37° C. and 5% CO2. The absorbance at A600 of the culture was measured to determine the bacterial cell concentration of the inoculum. Once the desired bacterial concentration was reached, Streptococcus mutans inoculum was plated on cell culture plates previously prepared with a range of concentrations of EGCG alone, agmatine alone, or EGCG and agmatine in combination. The plates streaked with inoculum were incubated for at least 24 hours at 37° C. and 5% CO2. After incubation, the cells were transferred to sterile tubes, plated on BHI plate using an Autoplate 4000, and incubated for at least 36 hours at 37° C. Colonies were counted and colony forming units (cfu) were calculated as recommended by Autoplate 4000 guide. […]

Compound | bacterial concentration of Streptococcus mutans following treatment (50 μg/ml EGCG alone) | bacterial concentration of Streptococcus mutans following treatment (7.5 mg/ml agmatine alone)
O=C(O[C@@H]1Cc2c(O)cc(O)cc2O[C@@H]1c1cc(O)c(O)c(O)c1)c1cc(O)c(O)c(O)c1 [EGCG, epigallocatechin gallate] | 6.00×10^1 cfu/ml | –
NCCCCN=C(N)N [agmatine, (4-aminobutyl)guanidine] | – | 6.50×10^1 cfu/ml

— US11116713B2, “Oral care compositions and methods” (priority 2018, dated 2021)
